Experimental data published in patent US20230131899A1, “INHIBITORS OF MICROBIALLY INDUCED AMYLOID” (Axial Therapeutics, Inc., priority 2020, published 2023).
Like-named read-outs stand apart in the source and are kept apart here.

System: CsgA gene expression (csgBAC promoter-GFP reporter) in E. coli UTI89
Test: In vitro live cell fluorescent reporter assay of CsgA transcription (Reporter Assay)
Format: cell-based
Outline: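 Compounds at 0.14–100 μM (1% DMSO final) incubated 20 h at 27 °C in YESCA broth with UTI89 carrying a single-copy GFP reporter under the csgBAC intergenic promoter region, inoculum OD600 0.003. Fluorescence normalized to vehicle wells gave IC50 and 50%-of-vehicle concentration; OD600 reduction >10% flagged growth impact.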

[1] = Escherichia coli, read-out: Reporter Assay Abs IC50 (activity range), median Abs IC50 in the CsgA reporter assay, class symbol
[2] = Escherichia coli, read-out: Reporter Assay Abs IC50 (μM), median Abs IC50 in the CsgA reporter assay, N/A = maximum expression reduction is <50% of control
[3] = Escherichia coli, read-out: Reporter Assay Abs IC50, activity range, class symbol

Row | Structure (SMILES) | IC50 (read-out: Reporter Assay Abs IC50 (activity range), median Abs IC50 in the CsgA reporter assay, class symbol) | IC50 (read-out: Reporter Assay Abs IC50, median Abs IC50 in the CsgA reporter assay, N/A = maximum expression reduction is <50% of control) | IC50 [1] | IC50 [2] | IC50 [3]
1 | CCCN1CC(C(=O)O)n2c(c(-c3cccc(C(F)(F)F)c3)c(Cc3cccc4ccccc34)cc2=O)S1(=O)=O (single isomer, unassigned) [Compound 016b, 8-(naphthalen-1-ylmethyl)-6-oxo-2-propyl-9-(3-(trifluoromethyl)phenyl)-3,4-dihydro-2H,6H-pyrido[1,2-e][1,2,5]thiadiazine-4-carboxylic acid 1,1-dioxide] | 4.6 to 10 µM | 6.6 µM |  |  | 
2 | CCCCCN1CC(C(=O)O)n2c(c(-c3cccc(C(F)(F)F)c3)c(Cc3cccc4ccccc34)cc2=O)S1(=O)=O (single isomer, unassigned) [Compound 025a, 8-(naphthalen-1-ylmethyl)-6-oxo-2-pentyl-9-(3-(trifluoromethyl)phenyl)-3,4-dihydro-2H,6H-pyrido[1,2-e][1,2,5]thiadiazine-4-carboxylic acid 1,1-dioxide] |  |  | 1.3 to 4.5 µM | 2 µM | 
3 | O=C(O)C1CN(Cc2ccccc2)c2c(-c3cccc(C(F)(F)F)c3)c(C(F)(F)c3cccc4ccccc34)c(Br)c(=O)n21 (stereo not shown) [Compound 155, 1-benzyl-6-bromo-7-(difluoro(naphthalen-1-yl)methyl)-5-oxo-8-(3-(trifluoromethyl)phenyl)-1,2,3,5-tetrahydroimidazo[1,2-a]pyridine-3-carboxylic acid] |  |  |  | 3 µM | 1.3 to 4.5 µM
4 | O=C(O)C1CN(CCCO)c2c(-c3cccc(C(F)(F)F)c3)c(Cc3cccc4ccccc34)c(Cl)c(=O)n21 (stereo not shown) [Compound 197, 6-chloro-1-(3-hydroxypropyl)-7-(naphthalen-1-ylmethyl)-5-oxo-8-(3-(trifluoromethyl)phenyl)-1,2,3,5-tetrahydroimidazo[1,2-a]pyridine-3-carboxylic acid] |  |  |  | 19.3 µM | > 10 µM
5 | CN1CC(C(=O)O)n2c(c(-c3cccc(C(F)(F)F)c3)c(Cc3cccc4ccccc34)c(NC3CCCC3)c2=O)S1(=O)=O (stereo not shown) [Compound 070, 7-(cyclopentylamino)-2-methyl-8-(naphthalen-1-ylmethyl)-6-oxo-9-(3-(trifluoromethyl)phenyl)-3,4-dihydro-2H,6H-pyrido[1,2-e][1,2,5]thiadiazine-4-carboxylic acid 1,1-dioxide] |  |  | 1.3 to 4.5 µM | 2.3 µM | 
6 | O=C(O)C1CN(CCc2ccccc2)c2c(-c3cccc(C(F)(F)F)c3)c(Cc3cccc4ccccc34)c(Cl)c(=O)n21 (stereo not shown) [Compound 178, 6-chloro-7-(naphthalen-1-ylmethyl)-5-oxo-1-phenethyl-8-(3-(trifluoromethyl)phenyl)-1,2,3,5-tetrahydroimidazo[1,2-a]pyridine-3-carboxylic acid] |  |  |  | 0.8 µM | < 1.3 µM
7 | CC1(C(=O)O)CNS(=O)(=O)c2c(-c3cccc(C(F)(F)F)c3)c(Cc3cccc4ccccc34)cc(=O)n21 (stereo not shown) [Compound 042, 4-methyl-8-(naphthalen-1-ylmethyl)-6-oxo-9-(3-(trifluoromethyl)phenyl)-3,4-dihydro-2H,6H-pyrido[1,2-e][1,2,5]thiadiazine-4-carboxylic acid 1,1-dioxide] |  |  | 1.3 to 4.5 µM | 3.3 µM | 
8 | Cc1c(Cc2cccc3ccccc23)c(-c2cccc(C(F)(F)F)c2)c2n(c1=O)C(C(=O)O)CN(C)S2(=O)=O (stereo not shown) [Compound 068, 2,7-dimethyl-8-(naphthalen-1-ylmethyl)-6-oxo-9-(3-(trifluoromethyl)phenyl)-3,4-dihydro-2H,6H-pyrido[1,2-e][1,2,5]thiadiazine-4-carboxylic acid 1,1-dioxide] |  |  | > 10 µM | 11.1 µM | 
9 | CCc1c(Cc2cccc3ccccc23)c(-c2cccc(C(F)(F)F)c2)c2n(c1=O)C(C(=O)O)CN2Cc1ccc(OC)cc1 (stereo not shown) [Compound 161, 6-ethyl-1-(4-methoxybenzyl)-7-(naphthalen-1-ylmethyl)-5-oxo-8-(3-(trifluoromethyl)phenyl)-1,2,3,5-tetrahydroimidazo[1,2-a]pyridine-3-carboxylic acid] |  |  |  | 2.1 µM | 1.3 to 4.5 µM
10 | O=C(O)C1CN(Cc2ccccc2)c2c(-c3cccc(Br)c3)c(Cc3cccc4ccccc34)c(Cl)c(=O)n21 (stereo not shown) [Compound 198, 1-benzyl-8-(3-bromophenyl)-6-chloro-7-(naphthalen-1-ylmethyl)-5-oxo-1,2,3,5-tetrahydroimidazo[1,2-a]pyridine-3-carboxylic acid] |  |  |  | 5 µM | 4.6 to 10 µM
11 | Cn1c(=O)c2c(ncn2CCCCCCCN2CC(C(=O)O)n3c(c(-c4cccc(C(F)(F)F)c4)c(Cc4cccc5ccccc45)cc3=O)S2(=O)=O)n(C)c1=O (stereo not shown) [Compound 036] |  |  | 1.3 to 4.5 µM | 1.6 µM | 
12 | CN1CC(C(=O)O)n2c(c(-c3cccc(C(F)(F)F)c3)c(Cc3cccc4ccccc34)c(C(=O)N3CCOCC3)c2=O)S1(=O)=O (stereo not shown) [Compound 160, 2-methyl-7-(morpholine-4-carbonyl)-8-(naphthalen-1-ylmethyl)-6-oxo-9-(3-(trifluoromethyl)phenyl)-3,4-dihydro-2H,6H-pyrido[1,2-e][1,2,5] thiadiazine-4-carboxylic acid 1,1-dioxide] |  |  |  | 65.8 µM | > 10 µM
13 | Cn1c(=O)c2c(nc(CCCCCN3CC(C(=O)O)n4c(c(-c5cccc(C(F)(F)F)c5)c(Cc5cccc6ccccc56)cc4=O)S3(=O)=O)n2C)n(C)c1=O (stereo not shown) [Compound 045, 8-(naphthalen-1-ylmethyl)-6-oxo-9-(3-(trifluoromethyl)phenyl)-2-(5-(1,3,7-trimethyl-2,6-dioxo-2,3,6,7-tetrahydro-1H-purin-8-yl)pentyl)-3,4-dihydro-2H,6H-pyrido[1,2-e][1,2,5]thiadiazine-4-carboxylic acid 1,1-dioxide] |  |  | 1.3 to 4.5 µM | 1.3 µM | 
14 | O=C(O)C1CN(Cc2ccccc2)c2c(-c3cccc(C(F)(F)F)c3)c(Cc3cccc4ccccc34)c(F)c(=O)n21 (stereo not shown) [Compound 194, 1-benzyl-6-fluoro-7-(naphthalen-1-ylmethyl)-5-oxo-8-(3-(trifluoromethyl)phenyl)-1,2,3,5-tetrahydroimidazo[1,2-a]pyridine-3-carboxylic acid] |  |  |  | 1.4 µM | 1.3 to 4.5 µM
15 | O=C(O)C1CN(Cc2ccccc2)c2c(-c3cccc(C(F)(F)F)c3)c(Cc3cccc4ccccc34)cc(=O)n21 (stereo not shown) [Compound 187, 1-benzyl-7-(naphthalen-1-ylmethyl)-5-oxo-8-(3-(trifluoromethyl)phenyl)-1,2,3,5-tetrahydroimidazo[1,2-a]pyridine-3-carboxylic acid] |  |  |  | 19 µM | > 10 µM
16 | Cn1c(=O)c2c(nc(CCCCN3CC(C(=O)O)n4c(c(-c5cccc(C(F)(F)F)c5)c(Cc5cccc6ccccc56)cc4=O)S3(=O)=O)n2C)n(C)c1=O (stereo not shown) [Compound 044, 8-(naphthalen-1-ylmethyl)-6-oxo-9-(3-(trifluoromethyl)phenyl)-2-(4-(1,3,7-trimethyl-2,6-dioxo-2,3,6,7-tetrahydro-1H-purin-8-yl)butyl)-3,4-dihydro-2H,6H-pyrido[1,2-e][1,2,5]thiadiazine-4-carboxylic acid 1,1-dioxide] |  |  | 1.3 to 4.5 µM | 1.5 µM | 
17 | CCCCN1CC(C(=O)O)n2c(c(-c3cccc(C(F)(F)F)c3)c(Cc3cccc4ccccc34)c(C(N)=O)c2=O)S1(=O)=O (stereo not shown) [Compound 177, 2-butyl-7-carbamoyl-8-(naphthalen-1-ylmethyl)-6-oxo-9-(3-(trifluoromethyl)phenyl)-3,4-dihydro-2H,6H-pyrido[1,2-e][1,2,5]thiadiazine-4-carboxylic acid 1,1-dioxide] |  |  |  | 1.3 µM | 1.3 to 4.5 µM
